Data: patent publication US20260000642A1 (Tay Therapeutics Limited, priority 2022, published 2026)

Tested on: collagen-induced arthritis in Lewis rats
Assay: Collagen-induced arthritis (CIA) model in rats: body weight, paw volume, clinical scores, clinical observations; as to Detailed Clinical Scores, left forelimb: key of the grades not given here; as to Detailed Clinical Scores, left hind limb: key of the grades not given here; as to Detailed Clinical Scores, right forelimb: key of the grades not given here; as to Detailed Clinical Scores, right hind limb: key of the grades not given here; as to Detailed Clinical Scores, score: key of the grades not given here
Conditions: for Detailed Clinical Scores, left forelimb / Detailed Clinical Scores, left hind limb / Detailed Clinical Scores, right forelimb / Detailed Clinical Scores, right hind limb / Detailed Clinical Scores, score: CIA, per animal ID
[1] = CIA rats, 10 mg/kg, individual animals
[2] = CIA rats, 30 mg/kg, individual animals
[3] = CIA rats, 3 mg/kg twice daily for 21 days
[4] = CIA rats, 30 mg/kg twice daily for 21 days

With CNC(=O)c1[nH]c(C(=O)NC2CCC2)cc1O[C@@H](C)c1ccccc1 [Example 101, N^5-cyclobutyl-N^2-methyl-3-(1-phenylethoxy)-1H-pyrrole-2,5-dicarboxamide] the “amelioration of clinical symptoms associated with CIA” value (3 mg/kg, 10 mg/kg and 30 mg/kg twice daily) was “dose-dependent effect”, the “Clinical Observation Day 15” value [1] was “Diarrhea” and the “Clinical Observation Day 19” value [1] was “Diarrhea”. For the same molecule, the “Clinical Observation Day 12” value [2] was “Diarrhea”, the “Clinical Observation Day 13” value [2] was “Diarrhea” and the “Clinical Observation Day 16” value [2] was “Diarrhea”. The “Clinical Observation Day 18” value [2] was “Diarrhea”, the “Clinical Observation Day 19” value [2] was “Diarrhea” and the “Clinical Observation Day 21” value [2] was “Diarrhea”. The “diarrhea over the 21-day period” value (CIA rats, 3 mg/kg twice daily) was “did not have diarrhea”, the “effect on hind paw volume relative to CIA + vehicle (group 2)” value [3] was “less effective at preventing an increase in paw volume” and the “increase in body weight, day 21 compared to day 0” value [3] was 1.7%. The “animals that gained weight by the end of the study (of 8)” value (shortened to “animals that gained weight by the end”) (CIA rats, 3 mg/kg twice daily for 21 days (group 5)) was 7/8, the “animals showing signs of disease (of 8)” value (CIA rats, 3 mg/kg twice daily, day 12) was “Three animals” and the “animals showing signs of disease (of 8)” value (CIA rats, 3 mg/kg twice daily, day 14) was “all animals”. The “diarrhea over the 21-day period” value (CIA rats, 10 mg/kg twice daily (group 6)) was “Two different animals”, the “weight change, day 21 compared to day 0” value (CIA rats, 10 mg/kg twice daily for 21 days) was “approximately 0.5%” and the “animals that gained weight by the end” value (CIA rats, 10 mg/kg twice daily for 21 days (group 6)) was 3/8. The “effect on hind paw volume relative to CIA + vehicle (group 2)” value (CIA rats, 10 mg/kg twice daily for 21 days, both paws, p<0.05) was “significantly decreased relative to group 2 on days 19 and 21”, the “animals showing signs of disease (of 8)” value (CIA rats, 10 mg/kg twice daily, day 19) was “all animals” and the “diarrhea over the 21-day period” value (CIA rats, 30 mg/kg twice daily (group 7)) was “Four different animals”. The “effect on hind paw volume relative to CIA + vehicle (group 2)” value [4] was “most effective dose at preventing an increase in paw volume”, the “weight change, day 21 compared to day 0” value [4] was “approximately 0.5%” and the “animals that gained weight by the end” value (CIA rats, 30 mg/kg twice daily for 21 days (group 7)) was 3/8. For the same molecule, the “animals showing signs of disease (of 8)” value (CIA rats, 30 mg/kg twice daily, day 12) was “One animal”, the “hind paw volume increase at plateau relative to day 0” value (CIA rats, 30 mg/kg twice daily, increase from around day 19) was “approximately 35%” and the “Detailed Clinical Scores, left forelimb” value (Day 0, 3 mg/kg) was 0. The “Detailed Clinical Scores, left hind limb” value (Day 0, 3 mg/kg) was 0, the “Detailed Clinical Scores, right forelimb” value (Day 0, 3 mg/kg) was 0 and the “Detailed Clinical Scores, right hind limb” value (Day 0, 3 mg/kg) was 0. For the same molecule, the “Detailed Clinical Scores, score” value (Day 0, 3 mg/kg) was 0, the “Detailed Clinical Scores, left forelimb” value (Day 0, 10 mg/kg) was 0 and the “Detailed Clinical Scores, left hind limb” value (Day 0, 10 mg/kg) was 0. For the same molecule, the “Detailed Clinical Scores, right forelimb” value (Day 0, 10 mg/kg) was 0, the “Detailed Clinical Scores, right hind limb” value (Day 0, 10 mg/kg) was 0 and the “Detailed Clinical Scores, score” value (Day 0, 10 mg/kg) was 0. The “Detailed Clinical Scores, left forelimb” value (Day 0, 30 mg/kg) was 0, the “Detailed Clinical Scores, left hind limb” value (Day 0, 30 mg/kg) was 0 and the “Detailed Clinical Scores, right forelimb” value (Day 0, 30 mg/kg) was 0. The “Detailed Clinical Scores, right hind limb” value (Day 0, 30 mg/kg) was 0, the “Detailed Clinical Scores, score” value (Day 0, 30 mg/kg) was 0 and the “Average animal body weight percent change” value (Day 0, CIA + 3 mg/kg) was 0.00%. The “Mean animal body weight” value (Day 0, CIA + 3 mg/kg) was 165 g, the “Average animal body weight percent change” value (Day 0, CIA + 10 mg/kg) was 0.00% and the “Mean animal body weight” value (Day 0, CIA + 10 mg/kg) was 162 g. The “Average animal body weight percent change” value (Day 0, CIA + 30 mg/kg) was 0.00%, the “Mean animal body weight” value (Day 0, CIA + 30 mg/kg) was 162 g and the “Average animal body weight percent change” value (Day 1, CIA + 3 mg/kg) was −0.49%. The “Mean animal body weight” value (Day 1, CIA + 3 mg/kg) was 164 g, the “Average animal body weight percent change” value (Day 1, CIA + 10 mg/kg) was −1.45% and the “Mean animal body weight” value (Day 1, CIA + 10 mg/kg) was 160 g. For the same molecule, the “Average animal body weight percent change” value (Day 1, CIA + 30 mg/kg) was −0.83%, the “Mean animal body weight” value (Day 1, CIA + 30 mg/kg) was 161 g and the “Average animal body weight percent change” value (Day 2, CIA + 3 mg/kg) was −0.15%. For the same molecule, the “Mean animal body weight” value (Day 2, CIA + 3 mg/kg) was 165 g, the “Average animal body weight percent change” value (Day 2, CIA + 10 mg/kg) was −1.29% and the “Mean animal body weight” value (Day 2, CIA + 10 mg/kg) was 160 g. For the same molecule, the “Average animal body weight percent change” value (Day 2, CIA + 30 mg/kg) was −1.03%, the “Mean animal body weight” value (Day 2, CIA + 30 mg/kg) was 160 g and the “Average animal body weight percent change” value (Day 3, CIA + 3 mg/kg) was 1.01%. The “Mean animal body weight” value (Day 3, CIA + 3 mg/kg) was 167 g, the “Average animal body weight percent change” value (Day 3, CIA + 10 mg/kg) was 0.91% and the “Mean animal body weight” value (Day 3, CIA + 10 mg/kg) was 164 g. The “Average animal body weight percent change” value (Day 3, CIA + 30 mg/kg) was −1.32%, the “Mean animal body weight” value (Day 3, CIA + 30 mg/kg) was 160 g and the “Average animal body weight percent change” value (Day 4, CIA + 3 mg/kg) was 0.94%. For the same molecule, the “Mean animal body weight” value (Day 4, CIA + 3 mg/kg) was 166 g, the “Average animal body weight percent change” value (Day 4, CIA + 10 mg/kg) was 0.99% and the “Mean animal body weight” value (Day 4, CIA + 10 mg/kg) was 164 g. The “Average animal body weight percent change” value (Day 4, CIA + 30 mg/kg) was 0.47% and the “Mean animal body weight” value (Day 4, CIA + 30 mg/kg) was 163 g.
